According to patent US12558343B2, “Medical use of icaritin” (Lunan Pharmaceutical Group Corporation, priority 2020, dated 2026):

Key:
[1] = tested on: platelets (activation induced by adenosine diphosphate); assay: Platelet activation induced by adenosine diphosphate, flow cytometry (CD62p/CD61), blood of dosed rats; type: in vivo, SD rats; settings: for Activation rate of platelets activated by adenosine diphosphate, Basic value / Spontaneous activation rate: before administration; for Spontaneous activation rate: no adenosine diphosphate; for Activation-promoting rate: after vs basic value; for Activation rate of platelets activated by adenosine diphosphate, After administration: 20 min after last administration
Description: 0.5 mL of blood was collected from the orbit of the rat and 3.8% sodium citrate was added for anticoagulation (a ratio of blood to anticoagulant was 9:1) to prepare anticoagulated blood. 50 μL of anticoagulated blood was taken from each animal for determination of spontaneous platelet activation rate; and another 50 μL of anticoagulated blood was taken and 50 μL of adenosine diphosphate with a final concentration of 10 μmol was added for activation. 1.0-1.5 μL of each of CD62pPE/Cy7 and CD61PE was added to double-label the 2 anticoagulated blood, CD61 was used to label all the platelets and CD62p was used to label the activated platelets. […] The rats were double-labeled with G2a-PE/Cy7 and G-PE […] as a control. Each tube containing the treated blood was incubated at 4° C. in a dark place for 20 min; and 0.5 mL of 4% paraformaldehyde was added to fix for 10 min. 50 μL of the fixed blood sample was taken and diluted with 1 mL of a diluent, and the diluted sample was analyzed on a flow cytometer. Platelet populations were delineated in a CD61PE/Side Angle Light Scattering (SSC) two-parameter scatterplot, 5,000 platelets were counted, the number of CD61 and CD62p-positive cells was further counted in a CD61/CD62p scatterplot, and a percentage of a positive expression rate of CD62p in an expression rate of CD61 reflected a platelet activation rate (%).
(§1) Twenty-four rats were taken and divided into 3 groups with 8 rats in each group. […] 1.0 mL of blood was collected from the orbits before administration and 20 min after a last administration, wherein 0.5 mL was used for a blood routine examination and 0.5 mL was used to prepare anticoagulated blood. The blood was treated and analyzed on the flow cytometer according to the detection method of platelet activation by flow cytometry. An activation rate of platelets activated by adenosine diphosphate (basic value) before administration and an activation rate of platelets activated by adenosine diphosphate after administration were compared. At the same time, 50 μL of anticoagulated blood was taken from the rats before administration, adenosine diphosphate was not added, and a spontaneous activation rate of the anticoagulated blood of animals was measured using the same method. The animals were fasted for 16-24 h before each blood sampling.

[2] = Blood routine examination of rats before/after icaritin (Efficacy Example 1); type: in vivo, SD rats
Description: as §1

[3] = tested on: hemorrhagic transformation model induced by aspirin combined with cerebral ischemia-reperfusion; assay: Hemorrhagic transformation after cerebral ischemia-reperfusion (MCAO) caused by aspirin, bleeding rate; type: in vivo, ICR mice; settings: for Number of animals with cerebral hemorrhage: 24 h after MCAO; for Bleeding rate %: model group 85.7
Description: 5-week-old ICR male mice were fed to 6-week-old and divided into a control group, a model group, an icaritin-3 mg/kg group, an icaritin-6 mg/kg group, an icaritin-12 mg/kg group, and an icariin-12 mg/kg group according to body weight. From day 1 to day 3 after the grouping, the mice in each icaritin group were separately intragastrically administrated with 3, 6, and 12 mg/kg of icaritin and the mice in the icariin group was intragastrically administrated with 12 mg/kg of icariin once a day, and the mice in other groups were intragastrically administrated with a corresponding vehicle; and except the control group, the mice in other groups were intragastrically administrated with aspirin (100 mg/kg) or clopidogrel (15 mg/kg) once a day at a volume of 10 mL/kg.
On day 3, 10 min after the administration, the mice were anesthetized by intraperitoneal injection of 70 mg/kg of pentobarbital sodium and subjected to a cerebral ischemia-reperfusion (middle cerebral artery occlusion, MCAO) surgery with ischemia for 1 h and reperfusion for 23 h.
24 h after the surgery was an end point of the experiment.
Bleeding rate: the mice were anesthetized by intraperitoneal injection of 70 mg/kg of pentobarbital sodium, a brain tissue was taken out, cerebral hemorrhage was recorded and a bleeding rate of the mice in each group was calculated. Cerebral hemorrhage rate %=number of animals with cerebral hemorrhage/number of surviving animals in each group×100.

[4] = tested on: activated partial thromboplastin time; assay: Activated partial thromboplastin time, rabbit model of acquired hemophilia A; type: in vivo, New Zealand rabbits
Description: Twenty-four healthy New Zealand rabbits were selected and randomly divided into a control group, a model group and a treatment group with 8 rabbits in each group. Each rabbit weighed about 1.5 kg. The rabbits were fed in separate stainless steel cages at a room temperature of 18-25° C. The rabbits in each group were given a normal diet without any special treatment. One week later, the rabbit was anesthetized with 2% pentobarbital (1.5 ml/kg) via the marginal ear vein, and the left femoral vein of the rabbit was isolated and exposed for injection. The plasma of patients with acquired hemophilia A (confirmed by the Department of Hematology, Linyi People's Hospital) was intravenously injected into the rabbits in the model group and the treatment group at 2 ml/kg of rabbit body weight. The rabbits in the treatment group were immediately intragastrically administrated with icaritin at 18 mg/kg after the injection was completed and the rabbits in the model group were intragastrically administrated with a same amount of normal saline. The rabbits in the control group were intravenously injected with a same amount of normal human plasma. Blood was drawn from the marginal ear vein 30 min before and 30 min, 60 min, 90 min, and 120 min after the injection of the plasma separately, 3.8% of sodium citrate (1:9) was added for anticoagulation, and the anticoagulated blood was centrifuged at 3,000 r/m to separate plasma.
Referring to the instructions of the kit, 0.1 mL of rabbit plasma was taken, 0.1 mL of a thromboplastin time reagent was added, the materials were mixed, an obtained mixture was subjected to warm bath at 37° C. for 2 min, 0.1 mL of 0.025 M calcium chloride pre-warmed at 37° C. was added, the materials were uniformly mixed, a value of thromboplastin time at each time point was measured by immediately starting a stopwatch, the thromboplastin time at each time point was repeatedly detected twice, and an average value was obtained.

Concentration of hemoglobin ([2]; 3 mg/kg i.g. 3 days): 180500 ± 11200 µg/mL | Number of erythrocytes ([2]; 3 mg/kg i.g. 3 days): 7.213 ± 0.554 10^12/L | Number of leukocytes ([2]; 3 mg/kg i.g. 3 days): 1.832 ± 0.154 10^9/L | Number of platelets ([2]; 3 mg/kg i.g. 3 days): 1124 ± 209 10^9/L | Concentration of hemoglobin ([2]; 6 mg/kg i.g. 3 days): 179000 ± 9200 µg/mL | Number of erythrocytes ([2]; 6 mg/kg i.g. 3 days): 6.783 ± 0.871 10^12/L | Number of leukocytes ([2]; 6 mg/kg i.g. 3 days): 1.653 ± 0.421 10^9/L | Number of platelets ([2]; 6 mg/kg i.g. 3 days): 1397 ± 143 10^9/L | Concentration of hemoglobin ([2]; 18 mg/kg i.g. 3 days): 181600 ± 9500 µg/mL | Number of erythrocytes ([2]; 18 mg/kg i.g. 3 days): 7.235 ± 0.656 10^12/L | Number of leukocytes ([2]; 18 mg/kg i.g. 3 days): 1.761 ± 0.335 10^9/L | Number of platelets ([2]; 18 mg/kg i.g. 3 days): 1249 ± 166 10^9/L
SMILES: COc1ccc(-c2oc3c(CC=C(C)C)c(O)cc(O)c3c(=O)c2O)cc1 [Icaritin]
Activation rate of platelets activated by adenosine diphosphate, Basic value ([1]; 3 mg/kg group): 44.02 ± 11.21% | Spontaneous activation rate ([1]; 3 mg/kg group): 0.60 ± 0.11% | Activation-promoting rate ([1]; 3 mg/kg i.g. 3 days): 32.12% | Activation rate of platelets activated by adenosine diphosphate, After administration ([1]; 3 mg/kg i.g. once a day 3 days): 58.16 ± 13.41% | Activation rate of platelets activated by adenosine diphosphate, Basic value ([1]; 6 mg/kg group): 47.19 ± 13.12% | Spontaneous activation rate ([1]; 6 mg/kg group): 0.59 ± 0.20% | Activation-promoting rate ([1]; 6 mg/kg i.g. 3 days): 38.22% | Activation rate of platelets activated by adenosine diphosphate, After administration ([1]; 6 mg/kg i.g. once a day 3 days): 65.23 ± 16.78% | Activation rate of platelets activated by adenosine diphosphate, Basic value ([1]; 18 mg/kg group): 50.34 ± 19.22% | Spontaneous activation rate ([1]; 18 mg/kg group): 0.61 ± 0.14% | Activation-promoting rate ([1]; 18 mg/kg i.g. 3 days): 55.84% | Activation rate of platelets activated by adenosine diphosphate, After administration ([1]; 18 mg/kg i.g. once a day 3 days): 78.45 ± 20.22% | Number of animals with cerebral hemorrhage ([3]; 3 mg/kg i.g. Day 1-3 with aspirin 100 mg/kg, of 8 animals): 3 | Bleeding rate % ([3]; 3 mg/kg i.g. Day 1-3 with aspirin 100 mg/kg): 37.5% | Number of animals with cerebral hemorrhage ([3]; 6 mg/kg i.g. Day 1-3 with aspirin 100 mg/kg, of 8 animals): 2 | Bleeding rate % ([3]; 6 mg/kg i.g. Day 1-3 with aspirin 100 mg/kg): 25.0% | Number of animals with cerebral hemorrhage ([3]; 12 mg/kg i.g. Day 1-3 with aspirin 100 mg/kg, of 9 (icaritin) or 8 (icariin) animals): 2 | Bleeding rate % ([3]; 12 mg/kg i.g. Day 1-3 with aspirin 100 mg/kg): 22.2% | Thromboplastin time ([4]; icaritin 18 mg/kg i.g. after plasma injection, 30 min after injection): 40.4 ± 3.23^$ | Thromboplastin time ([4]; icaritin 18 mg/kg i.g., 60 min after injection): 39.9 ± 4.09$ $ | Thromboplastin time ([4]; icaritin 18 mg/kg i.g., 90 min after injection): 40.4 ± 5.67$ $ | Thromboplastin time ([4]; icaritin 18 mg/kg i.g., 120 min after injection): 41.3 ± 6.21^$ $ | Thromboplastin time ([4]; treatment group, 30 min before injection of patient plasma (before icaritin)): 36.8 ± 4.12
